One may read the Emax as the size of the effect at its maximum, as opposed to the concentration needed. In general, EC50 refers to the concentration needed to bring the measured effect to its halfway point.

Structures can show the parent of a compound that is named as a salt.

The values below come from patent US12486268B2 (TRANSNEURAL THERAPEUTICS, INC., priority 2022, dated 2025).

This assay concerns the target T1, human serotonin 2A receptors (5-HT2AR) (Homo sapiens, UniProt P28223).
T1 construct: expressed in transfected cells; host or cells: HEK 293 cells
Put plainly: IP1 accumulation assay (HTRF). As to conditions: HEK 293 cells expressing human 5-HT2AR; for Emax: HEK293, IP1 production, relative to 5-HT, read-out: h5-HT2A Emax; for h5-HT2A EC50 / EC50: IP1 production (proxy for Gq activation); for EC50: read-out: h5-HT2A EC50. More on the design: key to h5-HT2A EC50: A=<100; B=100 to 1000; C=>1000 to 10000; D=>10000; E=inactive. The assay is classed as cell-based. The procedure:
The functional activity of disclosed compounds is measured using an IP1 (inositol monophosphate) accumulation assay. The effects of disclosed compounds on IP1 production (a proxy for Gq activation) was measured in HEK 293 cells expressing human serotonin 2A receptors (5-HT2AR) using a Homogeneous Time Resolved Fluorescence (HTRF) assay. Standard protocols are followed. Briefly, a cell suspension and test compound/s is incubated in a standard buffer. Following incubation, the cells are lysed, and the fluorescence acceptor and donor are added. After incubation the fluorescence transfer is measured, and data is analyzed using GraphPad Prism to generate concentration response curves.
A general note: Time-resolved FRET reads energy transfer from a long-lived donor to a nearby acceptor.

T1 sequence (P28223 whole entry): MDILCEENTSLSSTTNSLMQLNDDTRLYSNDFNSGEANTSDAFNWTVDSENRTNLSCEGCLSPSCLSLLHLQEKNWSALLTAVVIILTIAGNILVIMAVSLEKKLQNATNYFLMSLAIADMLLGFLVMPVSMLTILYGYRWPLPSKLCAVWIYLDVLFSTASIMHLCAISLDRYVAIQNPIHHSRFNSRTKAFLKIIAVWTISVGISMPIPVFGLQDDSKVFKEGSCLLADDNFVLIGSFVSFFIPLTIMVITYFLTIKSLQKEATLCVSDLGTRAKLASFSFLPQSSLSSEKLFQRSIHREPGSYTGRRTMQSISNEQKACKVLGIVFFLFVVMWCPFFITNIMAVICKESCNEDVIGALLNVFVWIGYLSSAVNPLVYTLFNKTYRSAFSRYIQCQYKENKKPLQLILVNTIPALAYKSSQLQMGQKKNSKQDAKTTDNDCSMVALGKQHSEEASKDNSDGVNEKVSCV

For the compound `CC1C=C(c2c[nH]c3ncccc23)CN(CC(C)(F)F)C1` (single isomer, unassigned) [103 Isomer 1], the Emax is < 50% and the “h5-HT2A EC50” value is recorded as “E”.

Consider `CC1C=C(c2c[nH]c3ncccc23)CN(CC(C)(F)F)C1` (single isomer, unassigned) [103 Isomer 2], for which the “h5-HT2A EC50” value is listed as “E”.

Regarding `CC1C=C(c2c[nH]c3ncccc23)CN(CC(F)(F)C(F)(F)F)C1` (single isomer, unassigned) [105 Isomer 1], the “h5-HT2A EC50” value was “E”.

Turning to `CC1C=C(c2c[nH]c3ncccc23)CN(CC(F)(F)C(F)(F)F)C1` (single isomer, unassigned) [105 Isomer 2], the Emax was < 50% and the “h5-HT2A EC50” value is on record as “E”.

For the compound `FC(F)(F)C1C=C(c2c[nH]c3ncccc23)CNC1` (stereo not drawn) [Compound 101, 3-(5-(trifluoromethyl)-1,2,5,6-tetrahydropyridin-3-yl)-1H-pyrrolo[2,3-b]pyridine], the Emax was in the range of 75 to 90% and the 50% effective concentration (EC50) fell in the range of 1 to 10 µM.

Regarding `CN1CC(c2c[nH]c3ncccc23)=CC(C(F)(F)F)C1` (stereo not drawn) [Compound 102, 3-(1-methyl-5-(trifluoromethyl)-1,2,5,6-tetrahydropyridin-3-yl)-1H-pyrrolo[2,3-b]pyridine], the EC50 is > 10 µM.

Consider `CN1CCC2CC2(c2c[nH]c3ncccc23)C1` (stereo not drawn) [Compound 106, 3-(3-methyl-3-azabicyclo[4.1.0]heptan-1-yl)-1H-pyrrolo[2,3-b]pyridine], for which the half-maximal effective concentration (EC50) is > 10 µM.

For the compound `CC1(C)C=C(c2c[nH]c3ncccc23)CNC1` [Compound 107, 3-(5,5-dimethyl-1,2,5,6-tetrahydropyridin-3-yl)-1H-pyrrolo[2,3-b]pyridine hydrochloride], the half-maximal effective concentration (EC50) is > 10 µM.

For the compound `CN1CC(c2c[nH]c3ncccc23)=CC(C)(C)C1` [Compound 108, 3-(1,5,5-trimethyl-1,2,5,6-tetrahydropyridin-3-yl)-1H-pyrrolo[2,3-b]pyridine hydrochloride], the EC50 is > 10 µM.

As to `N#CC1C=C(c2c[nH]c3ncccc23)CNC1` (stereo not drawn) [Compound 132, 5-(1H-pyrrolo[2,3-b]pyridin-3-yl)-1,2,3,6-tetrahydropyridine-3-carbonitrile], the EC50 is > 10 µM.

For the compound `C1=C(c2c[nH]c3ncccc23)C2CC1CN2` (stereo not drawn) [Compound 134], the maximum response (Emax) is < 50% and the “h5-HT2A EC50” value was “E”.

`CN1C2CC=C(c3c[nH]c4ncccc34)C1CC2` (stereo not drawn) [Compound 141, 3-(8-methyl-8-azabicyclo[3.2.1]oct-2-en-2-yl)-1H-pyrrolo[2,3-b]pyridine]: the EC50 is > 10 µM.

In the case of `CCN1CC(c2c[nH]c3ncccc23)=CC2(CC2)C1` [Compound 144, 3-(5-ethyl-5-azaspiro[2.5]oct-7-en-7-yl)-1H-pyrrolo[2,3-b]pyridine], the Emax lay in the range of 75 to 90% and the EC50 fell in the range of 1 to 10 µM.

With `C1=C(c2c[nH]c3ncccc23)CNCC12CCC2` [Compound 145, 3-(6-azaspiro[3.5]non-8-en-8-yl)-1H-pyrrolo[2,3-b]pyridine], the maximal response (Emax) is < 50% and the EC50 fell in the range of 1 to 10 µM.

As for `CN1CC(c2c[nH]c3ncccc23)=CC2(CCC2)C1` [Compound 146, 3-(6-methyl-6-azaspiro[3.5]non-8-en-8-yl)-1H-pyrrolo[2,3-b]pyridine dihydrochloride], the Emax lay in the range of 50 to 75% and the EC50 fell in the range of 0.1 to 1 µM.

On to `C1=C(c2c[nH]c3ncccc23)C2(CC2)NCC1` [Compound 147, 3-(4-azaspiro[2.5]oct-7-en-8-yl)-1H-pyrrolo[2,3-b]pyridine hydrochloride], for which the Emax is > 90% and the EC50 was 1 to 10 µM.

Consider `CC1(C)CC=C(c2c[nH]c3ncccc23)CN1` [Compound 148, 3-(6,6-dimethyl-1,2,5,6-tetrahydropyridin-3-yl)-1H-pyrrolo[2,3-b]pyridine hydrochloride], for which the Emax was < 50% and the “h5-HT2A EC50” value is “E”.

For the compound `CC1(C)NCCC=C1c1c[nH]c2ncccc12` [Compound 149, 3-(2,2-dimethyl-1,2,5,6-tetrahydropyridin-3-yl)-1H-pyrrolo[2,3-b]pyridine], the Emax is < 50% and the “h5-HT2A EC50” value is listed as “E”.

For `C1=C(c2nsc3ccccc23)CNCC1` [Compound 160, 3-(1,2,5,6-tetrahydropyridin-3-yl)benzo[d]isothiazole], the Emax is > 90% and the EC50 is < 0.1 µM.
